ChEMBL document CHEMBL5131559, “Discovery and Preclinical Profiling of GSK3839919, a Potent HIV-1 Allosteric Integrase Inhibitor” (ACS Med Chem Lett, 2022)

Key:
[1] = AUC (0 to infinity) in Sprague-Dawley rat at 5 mg/kg, po by LC-MS/MS analysis; assay type: ADME, organism-based; set-up: time infinity, dose 5 mg/kg, route po; details: in vivo
[2] = Oral bioavailability in Sprague-Dawley rat at 5 mg/kg by LC-MS/MS analysis; assay type: ADME, organism-based; details: in vivo
[3] = system: Human immunodeficiency virus 1; experiment: Antiviral activity against recombinant HIV1 NLRep-Rluc harbouring polymorphic N124/A125 integrase infected in human MT-2 cells assessed as inhibition of virus growth in presence of fetal bovine serum by measuring luciferase activity after 4 days; assay type: functional, organism-based; details: Human immunodeficiency virus 1, NLRep, MT2, 96 h
[4] = system: Human immunodeficiency virus 1; experiment: Antiviral activity against recombinant HIV1 NLRep-Rluc harbouring polymorphic T124/T125 integrase infected in human MT-2 cells assessed as inhibition of virus growth in presence of fetal bovine serum by measuring luciferase activity after 4 days; assay type: functional, organism-based; details: Human immunodeficiency virus 1, NLRep, MT2, 96 h
[5] = Cytotoxicity against human MT2 cells; assay type: toxicity, cell-based
[6] = Clearance in Sprague-Dawley rat at 1 mg/kg, iv by LC-MS/MS analysis; assay type: ADME, organism-based; details: in vivo
[7] = Metabolic stability in human liver microsomes assessed as parent compound disappearance by measuring half life at 0.5 uM in presence of NADPH by LC-MS/MS analysis; assay type: ADME, Microsome
[8] = system: Human immunodeficiency virus 1; experiment: Antiviral activity against recombinant HIV1 NLRep-Rluc harbouring polymorphic T124/T125 integrase infected in human MT-2 cells assessed as fold change in inhibition of virus growth in presence of fetal bovine serum by measuring luciferase activity after 4 days; assay type: functional; set-up: reference not given here; details: time 4 day
[9] = Toxicity in human Huh-7 cells assessed as fold change in lipid droplet count at 10 uM incubated for 48 hrs by plate reader assay; assay type: cell-based; details: huh-7, 48 h
[10] = Toxicity in rat Hepatoma cell line assessed as fold change in lipid droplet count at 10 uM incubated for 48 hrs by plate reader assay; assay type: cell-based
[11] = Clearance in cynomolgus monkey at 1 mg/kg, iv by LC-MS/MS analysis; assay type: ADME, organism-based, Macaca fascicularis; details: in vivo
[12] = Cmax in rat at 50 mg/kg,po qd for 1 week; assay type: ADME, organism-based; set-up: time 1 weeks, dose 50 mg/kg, route po; details: in vivo
[13] = system: Human immunodeficiency virus 1; experiment: Antiviral activity against recombinant HIV1 NLRep-Rluc harbouring polymorphic T124/V125 integrase infected in human MT-2 cells assessed as inhibition of virus growth in presence of fetal bovine serum by measuring luciferase activity after 4 days; assay type: functional, organism-based; details: Human immunodeficiency virus 1, NLRep, MT2, 96 h
[14] = Oral bioavailability in CD-1 mouse at 5 mg/kg by LC-MS/MS analysis; assay type: ADME, organism-based; details: in vivo
[15] = Clearance in Beagle dog at 1 mg/kg, iv by LC-MS/MS analysis; assay type: ADME, organism-based, Canis lupus familiaris; details: in vivo
[16] = Toxicity in human Huh-7 cells assessed as fold change in lipid droplet count at 20 uM incubated for 48 hrs by plate reader assay; assay type: cell-based; details: hepatoma cell line
[17] = Oral bioavailability in Beagle dog at 2 mg/kg by LC-MS/MS analysis; assay type: ADME, organism-based, Canis lupus familiaris; details: in vivo
[18] = Toxicity in dog assessed as increase in alkaline phosphatase level at 60 mg/kg,po for 1 week; assay type: organism-based, Canis lupus familiaris; details: in vivo, 168 h, time 1 weeks
[19] = Toxicity in rat assessed as increase in alkaline phosphatase level at 50 mg/kg,po for 1 week; assay type: organism-based; details: in vivo, 168 h, time 1 weeks
[20] = system: Human immunodeficiency virus 1; experiment: Antiviral activity against recombinant HIV1 NLRep-Rluc harbouring polymorphic N124/T125 integrase infected in human MT-2 cells assessed as inhibition of virus growth in presence of fetal bovine serum by measuring luciferase activity after 4 days; assay type: functional, organism-based; details: Human immunodeficiency virus 1, NLRep, MT2, 96 h
Hepatoma cell line = experiment: Cytotoxicity against rat Hepatoma cell line at 40 to 80 uM; assay type: toxicity, cell-based; details: dose 40-80 µM
[21] = Clearance in CD-1 mouse at 1 mg/kg, iv by LC-MS/MS analysis; assay type: ADME, organism-based; details: in vivo
[22] = AUC (0 to infinity) in CD-1 mouse at 5 mg/kg, po by LC-MS/MS analysis; assay type: ADME, organism-based; set-up: time infinity, dose 5 mg/kg, route po; details: in vivo
[23] = Toxicity in dog assessed as hepatocellular vacuolation at 60 mg/kg,po for 1 week; assay type: organism-based, Canis lupus familiaris; details: in vivo, 168 h, time 1 weeks
[24] = AUC (0 to infinity) in cynomolgus monkey at 2 mg/kg, po by LC-MS/MS analysis; assay type: ADME, organism-based, Macaca fascicularis; set-up: time infinity, dose 2 mg/kg, route po; details: in vivo
[25] = Toxicity in rat assessed as hepatocellular vacuolation at 50 mg/kg,po for 1 week; assay type: organism-based; details: in vivo, 168 h, time 1 weeks
[26] = Oral bioavailability in cynomolgus monkey at 2 mg/kg by LC-MS/MS analysis; assay type: ADME, organism-based, Macaca fascicularis; details: in vivo
Huh-7 = experiment: Cytotoxicity against human Huh-7 cells at 40 to 80 uM; assay type: toxicity, cell-based; details: huh-7, 80 µM, dose 40-80 µM
[27] = system: Human immunodeficiency virus 1; experiment: Antiviral activity against recombinant HIV1 NLRep-Rluc harbouring polymorphic A124/T125 integrase infected in human MT-2 cells assessed as inhibition of virus growth in presence of fetal bovine serum by measuring luciferase activity after 4 days; assay type: functional, organism-based; details: Human immunodeficiency virus 1, NLRep, MT2, 96 h
[28] = AUC (0 to infinity) in Beagle dog at 2 mg/kg, po by LC-MS/MS analysis; assay type: ADME, organism-based, Canis lupus familiaris; set-up: time infinity, dose 2 mg/kg, route po; details: in vivo
[29] = system: Human immunodeficiency virus 1; experiment: Antiviral activity against recombinant HIV1 NLRep-Rluc harbouring polymorphic A124/A125 integrase infected in human MT-2 cells assessed as inhibition of virus growth in presence of fetal bovine serum by measuring luciferase activity after 4 days; assay type: functional, organism-based; details: Human immunodeficiency virus 1, NLRep, MT2, 96 h
[30] = system: Human immunodeficiency virus 1; experiment: Antiviral activity against recombinant HIV1 NLRep-Rluc harbouring polymorphic T124/A125 integrase infected in human MT-2 cells assessed as inhibition of virus growth in presence of fetal bovine serum by measuring luciferase activity after 4 days; assay type: functional, organism-based; details: Human immunodeficiency virus 1, NLRep, MT2, 96 h

Molecule Cc1cccc(F)c1CN1CCc2cc(-c3c(C)nc(C)c([C@H](OC(C)(C)C)C(=O)O)c3N3CCC(C)(C)CC3)ccc2C1 has an AUC(0-inf) [1] of 16 µM·h, a bioavailability [2] of 70% and an EC50 [3] of 5.3 nM. The EC50 [4] was 5.6 nM, the CC50 [5] was ≥ 24000 nM and the clearance [6] was 5.8 mL/min/kg.
For Cc1nc(C)c([C@H](OC(C)(C)C)C(=O)O)c(N2CCC(C)(C)CC2)c1-c1ccc2c(c1)CCN(Cc1cccc(F)c1C)C2, the AUC(0-inf) [1] was 23.2 µM·h, the bioavailability [2] was 64% and the EC50 [3] was 8.1 nM. For the same molecule, the EC50 [4] was 2.6 nM, the CC50 [5] was ≥ 24000 nM and the clearance [6] was 4 mL/min/kg.
In the case of Cc1nc(C)c([C@H](OC(C)(C)C)C(=O)O)c(N2CCC(C)(C)CC2)c1-c1cnn(CCCc2ccc(F)cc2)c1, the EC50 [4] is reported as 8.8 nM, the half-life at 0.5 µM [7] is reported as 34 min and the CC50 [5] is reported as ≥ 22000 nM. For the same molecule, the “fold change (FC)” value [8] was 4.8.
For Cc1nc(C)c([C@H](OC(C)(C)C)C(=O)O)c(N2CCC(C)(C)CC2)c1-c1ccc2c(c1)CCN(Cc1ccc(F)cc1F)C2, the AUC(0-inf) [1] was 7.3 µM·h, the bioavailability [2] was > 100% and the EC50 [3] was 5.4 nM. For the same molecule, the EC50 [4] was 2.5 nM, the CC50 [5] was ≥ 24000 nM and the clearance [6] was 20.1 mL/min/kg.
With Cc1ncc(-c2ccc(OCCc3ccc(F)cc3)cc2)c(N2CCC(C)(C)CC2)c1[C@H](OC(C)(C)C)C(=O)O the “fold change (FC)” value [9] was 2.9 and the “fold change (FC)” value [10] was 2.5.
Cc1nc(C)c([C@H](OC(C)(C)C)C(=O)O)c(N2CCC(C)(C)CC2)c1-c1ccc2c(c1)CCN(c1ncnc3c1cnn3C)C2 gave an AUC(0-inf) [1] of 36.2 µM·h, a bioavailability [2] of 95% and an EC50 [3] of 7 nM. The EC50 [4] was 2.9 nM, the CC50 [5] was ≥ 17000 nM and the clearance [6] was 3.6 mL/min/kg.
For Cc1nc(C)c([C@H](OC(C)(C)C)C(=O)O)c(N2CCC(C)(C)CC2)c1-c1ccc2c(c1)CC[C@H](Cc1ccc(F)cc1)O2, the EC50 [3] was 12.8 nM, the EC50 [4] was 2.5 nM and the CC50 [5] was ≥ 22000 nM. For the same molecule, the “fold change (FC)” value [8] was 5.
In the case of Cc1nc(C)c([C@H](OC(C)(C)C)C(=O)O)c(N2CCC(C)(C)CC2)c1-c1ccc(OCCc2ccc(F)cc2)nc1, the EC50 [4] is reported as 12.3 nM, the half-life at 0.5 µM [7] is reported as > 120 min and the CC50 [5] is reported as ≥ 22000 nM. For the same molecule, the “fold change (FC)” value [8] was 7.2.
With Cc1cccc(Cl)c1CN1CCc2cc(-c3cnc(C)c([C@H](OC(C)(C)C)C(=O)O)c3N3CCC(C)(C)CC3)ccc2C1 the AUC(0-inf) [1] was 21.6 µM·h, the clearance [11] was 1.7 mL/min/kg and the bioavailability [2] was 71%. For the same molecule, the Cmax [12] was 488 µM, the EC50 [13] was 1.6 nM and the bioavailability [14] was 47%. For the same molecule, the clearance [15] was 2.2 mL/min/kg, the “fold change (FC)” value [16] was 3.7 and the EC50 [3] was 5.7 nM. For the same molecule, the EC50 [4] was 2.8 nM, the “fold change (FC)” value [9] was 1.2 and the bioavailability [17] was 89%. For the same molecule, the Activity [18] was “Toxic”, the Activity [19] was “Toxic” and the EC50 [20] was 3.1 nM. For the same molecule, the Activity (Hepatoma cell line) was “Toxic”, the CC50 [5] was 19500 nM and the clearance [21] was 1 mL/min/kg. For the same molecule, the AUC(0-inf) [22] was 43.1 µM·h, the Activity [23] was “Toxic” and the AUC(0-inf) [24] was 10.7 µM·h. For the same molecule, the clearance [6] was 3.8 mL/min/kg, the Activity [25] was “Toxic” and the “fold change (FC)” value [10] was 1.8. For the same molecule, the bioavailability [26] was 51%, the Activity (Huh-7) was “Toxic” and the EC50 [27] was 4.5 nM. For the same molecule, the AUC(0-inf) [28] was 24.2 µM·h, the EC50 [29] was 4.6 nM and the EC50 [30] was 5 nM.
Cc1nc(C)c([C@H](OC(C)(C)C)C(=O)O)c(N2CCC(C)(C)CC2)c1-c1ccc2c(c1)CCN(c1ncnc3c1oc1ccccc13)C2 gave an AUC(0-inf) [1] of 226 µM·h, a bioavailability [2] of 72% and an EC50 [3] of 3.4 nM. For the same molecule, the EC50 [4] was 1.5 nM, the CC50 [5] was ≥ 17000 nM and the clearance [6] was 0.5 mL/min/kg.
